What was measured:
[1] = system: Gram-negative and -positive bacteria; settings: Cheung et al., 1983; cited from earlier work
Morganella morganii = experiment: Minimum inhibitory concentration (MIC); format: cell-based; settings: Gram-negative
From the text: (§1) The antibacterial effects of compounds of the invention have been assessed by determination of the minimum inhibitory concentration (M.I.C.) value against a variety of Gram-negative and -positive bacteria. The microbial susceptibility data for four compounds, together with those for the antibacterial dipeptide beta-Cl-LAla-beta-Cl-LAla, are given in Table I.
(§2) in uM to facilitate a meaningful comparison of the approximate MICs among
(§3) the tested compounds; an appreciation of the MIC values in ug/mL can be
(§4) obtained by multiplying each value (μM) by 0.55

[2] = system: Staphylococcus aureus PSL-13 Pen^R; experiment: Minimum inhibitory concentration (MIC); format: cell-based; settings: possesses a betalactamase
From the text: as §1, §2, §3, §4

Enterobacter cloacae = experiment: Minimum inhibitory concentration (MIC); format: cell-based; settings: Gram-negative
From the text: as §1, §2, §3, §4

Salmonella typhimurium = experiment: Minimum inhibitory concentration (MIC); format: cell-based; settings: Gram-negative
From the text: as §1, §2, §3, §4

[3] = system: Staphylococcus aureus PSL-14 Pen^R; experiment: Minimum inhibitory concentration (MIC); format: cell-based; settings: possesses a betalactamase
From the text: as §1, §2, §3, §4

[4] = system: Staphylococcus aureus H-2690-8^R; experiment: Minimum inhibitory concentration (MIC); format: cell-based; settings: possesses a betalactamase
From the text: as §1, §2, §3, §4

Streptococcus agalactiae = experiment: Minimum inhibitory concentration (MIC); format: cell-based; settings: Gram positive
From the text: as §1, §2, §3, §4

Serratia marcescens = experiment: Minimum inhibitory concentration (MIC); format: cell-based; settings: Gram-negative
From the text: as §1, §2, §3, §4

[5] = system: Staphylococcus aureus PSL-15 Pen^R; experiment: Minimum inhibitory concentration (MIC); format: cell-based; settings: possesses a betalactamase
From the text: as §1, §2, §3, §4

Streptococcus faecalis = experiment: Minimum inhibitory concentration (MIC); format: cell-based; settings: Streptococcus faecalis; Gram positive
From the text: as §1, §2, §3, §4

Psuedomonas aeruginosa = experiment: Minimum inhibitory concentration (MIC); format: cell-based; settings: Gram-negative
From the text: as §1, §2, §3, §4

Enterobacter areogenes = experiment: Minimum inhibitory concentration (MIC); format: cell-based; settings: Gram-negative
From the text: as §1, §2, §3, §4

[6] = system: Staphylococcus aureus T-4624-8 Pen^R; experiment: Minimum inhibitory concentration (MIC); format: cell-based; settings: possesses a betalactamase
From the text: as §1, §2, §3, §4

[7] = system: Salmonella typhimurium LT 2; experiment: Minimum inhibitory concentration (MIC); format: cell-based; settings: Gram-negative
From the text: as §1, §2, §3, §4

Klebsiella pneumoniae = experiment: Minimum inhibitory concentration (MIC); format: cell-based; settings: Gram-negative
From the text: as §1, §2, §3, §4

[8] = system: Hemophilus influenzae 236; experiment: Minimum inhibitory concentration (MIC); format: cell-based
From the text: as §1, §2, §3, §4

Shigella flexneri = experiment: Minimum inhibitory concentration (MIC); format: cell-based; settings: Gram-negative
From the text: as §1, §2, §3, §4

Escherichia coli JSR-O = experiment: Minimum inhibitory concentration (MIC); format: cell-based; settings: Escherichia coli JSR-O; parental strain
From the text: as §1, §2, §3, §4

[9] = system: Hemophilus influenzae 238; experiment: Minimum inhibitory concentration (MIC); format: cell-based
From the text: as §1, §2, §3, §4

[10] = system: Hemophilus influenzae 487; experiment: Minimum inhibitory concentration (MIC); format: cell-based; settings: possesses a betalactamase
From the text: as §1, §2, §3, §4

Escherichia coli CR = experiment: Minimum inhibitory concentration (MIC); format: cell-based; settings: Escherichia coli CR
From the text: as §1, §2, §3, §4

[11] = system: Staphylococcus aureus PSL-16 Pen^R; experiment: Minimum inhibitory concentration (MIC); format: cell-based; settings: possesses a betalactamase
From the text: as §1, §2, §3, §4

[12] = system: Gram-negative and -positive bacteria; experiment: Antibacterial activity, general trends of the MIC panel of Table I; format: cell-based
From the text: as §1

[13] = system: Staphylococcus epidermidis (P^R M^R); experiment: Minimum inhibitory concentration (MIC); format: cell-based; settings: no strain number
From the text: as §1, §2, §3, §4
(§5) ^(k) P and M refer to penicillin and methicillin, respectively.

[14] = system: Staphylococcus epidermidis 1239(P^R M^R); experiment: Minimum inhibitory concentration (MIC); format: cell-based
From the text: as §1, §2, §3, §4, §5

[15] = system: Staphylococcus epidermidis MO1554(P^S M^S); experiment: Minimum inhibitory concentration (MIC); format: cell-based; settings: Staphylococcus epidermidis MO1554 (penicillin- and methicillin-sensitive, P^S M^S)
From the text: as §1, §2, §3, §4, §5

[16] = system: Escherichia coli JSR-O Cl-Pep^R; experiment: Minimum inhibitory concentration (MIC); format: cell-based; settings: Escherichia coli JSR-O Cl-Pep^R; selected for resistance to the peptide (f)
From the text: as §1, §2, §3, §4
^(g) This ia an E. coli JSRO strain selected for resistance to the
A comparison of the data for E. coli strains JSR-O and JSR-O Cl-Pep^R is of special interest. E. coli Cl-Pep^R is an E. coli JSR-O mutant which was selected for resistance to the dipeptide (f). […] Note that the MIC values for (d) and (e) against E. coli Cl-Pep^R (100 and 50 μM, respectively) are quite similar.

Escherichia coli Ceph^R = experiment: Minimum inhibitory concentration (MIC); format: cell-based; settings: Escherichia coli Ceph^R; resistant to cephalothin
From the text: as §1, §2, §3, §4
(§6) ^(j) Resistant to cephalothin (MIC >200 uM);

Corynebacterium JKR-2285 = experiment: Minimum inhibitory concentration (MIC); format: cell-based; settings: Corynebacterium JKR-2285; resistant to cephalothin
From the text: as §1, §2, §3, §4, §6

Corynebacterium JKM-4754 = experiment: Minimum inhibitory concentration (MIC); format: cell-based; settings: Corynebacterium JKM-4754; resistant to cephalothin
From the text: as §1, §2, §3, §4, §6

Substance: Betachloro-L-Ala-beta-chloro-L-Ala [(f), reference compound]
- antibacterial potency of dipeptide versus beta-Cl-LAla [1]: consistently and dramatically more potent an antibacterial agent than is beta-Cl-LAla alone
- Minimum Inhibitory Concentration (Morganella morganii): 200 µM
- Minimum Inhibitory Concentration [2]: 1.56 µM
- Minimum Inhibitory Concentration (Enterobacter cloacae): 12.5 µM
- Minimum Inhibitory Concentration (Salmonella typhimurium): 200 µM
- Minimum Inhibitory Concentration [3]: 12.5 µM
- Minimum Inhibitory Concentration [4]: 1.56 µM
- Minimum Inhibitory Concentration (Streptococcus agalactiae): ≤ 0.78 µM
- Minimum Inhibitory Concentration (Serratia marcescens): > 200 µM
- Minimum Inhibitory Concentration [5]: 12.5 µM
- Minimum Inhibitory Concentration (Streptococcus faecalis): 6.25 µM
- Minimum Inhibitory Concentration (Psuedomonas aeruginosa): > 200 µM
- Minimum Inhibitory Concentration (Enterobacter areogenes): 25 µM
- Minimum Inhibitory Concentration [6]: 1.56 µM
- Minimum Inhibitory Concentration [7]: 200 µM
- Minimum Inhibitory Concentration (Klebsiella pneumoniae): > 200 µM
- Minimum Inhibitory Concentration [8]: > 200 µM
- Minimum Inhibitory Concentration (Shigella flexneri): 200 µM
- Minimum Inhibitory Concentration (Escherichia coli JSR-O): 12.5 µM
- Minimum Inhibitory Concentration [9]: 12.5 µM
- Minimum Inhibitory Concentration [10]: ≤ 0.78 µM
- Minimum Inhibitory Concentration (Escherichia coli CR): 12.5 µM
- Minimum Inhibitory Concentration [11]: 12.5 µM
- insensitivity / resistance ([12]; P. aeruginosa, S. marcescens and K. pneumoniae): inherently insensitive
- sensitivity ([12]; S. aureus strains, Corynebacterium JK strains, S. faecalis, H. influenzae 487, E. coli JSR-O and E. cloacae): sensitive
- sensitivity ([12]; S. epidermidis 1239 P^R M^R and M-1554 P^S M^S): exquisitely sensitive
- Minimum Inhibitory Concentration [13]: ≤ 0.78 µM
- Minimum Inhibitory Concentration [14]: ≤ 0.78 µM
- Minimum Inhibitory Concentration [15]: ≤ 0.78 µM
- Minimum Inhibitory Concentration [16]: > 200 µM
- Minimum Inhibitory Concentration (Escherichia coli Ceph^R): 3.12 µM
- Minimum Inhibitory Concentration (Corynebacterium JKR-2285): 0.78 µM
- Minimum Inhibitory Concentration (Corynebacterium JKM-4754): 0.78 µM
